SMILES strings stand for the structures.

In turn, `CCc1ccc(/C=C/c2nc(COc3ccc(CCCCn4ccnc4CCO)cc3)co2)cc1` [Example 13, 2-[1-[4-[4-[[2-[(E)-2-(4-ethylphenyl)ethenyl]-1,3-oxazol-4-yl]methoxy]phenyl]butyl]-1H-imidazol-2-yl]-1-ethanol] registered a melting point of 94 to 95 °C.

The molecule `FC(F)(F)c1ccc(/C=C/c2nc(COc3cccc(CCCn4ccnn4)c3)co2)cc1` [Example 6, 1-(3-{3-[(2-((E)-2-[4-(trifluoromethyl)phenyl]ethenyl}-1,3-oxazol-4-yl)methoxy]phenyl}propyl)-1H-1,2,3-triazole] returned a melting point of 115 to 116 °C.

Turning to `OCCc1nccn1CCCCc1ccc(OCc2coc(/C=C/c3ccc(F)cc3)n2)cc1` [Example 14, 2-(1-(4-[4-({2-[(E)-2-(4-fluorophenyl)ethenyl]-1,3-oxazol-4-yl}methoxy)phenyl]butyl)-1H-imidazol-2-yl)-1-ethanol], the melting point fell in the range of 130 to 132 °C.

In the case of `OCCc1nccn1CCCCc1ccc(OCc2coc(/C=C/c3ccc(F)cc3F)n2)cc1` [Example 19, 2-[1-[4-[4-[[2-[(E)-2-(2,4-difluorophenyl)ethenyl]-1,3-oxazol-4-yl]methoxy]phenyl]butyl]-1H-imidazol-2-yl]-1-ethanol], the melting point fell in the range of 93 to 95 °C.

With `Fc1ccc(/C=C/c2nc(COc3cccc(CCCn4ccnn4)c3)co2)c(F)c1` [Example 8, 1-{3-[3-({2-[(E)-2-(2,4-difluorophenyl)ethenyl]-1,3-oxazol-4-yl}methoxy)phenyl]propyl}-1H-1,2,3-triazole], the melting point was 89 to 90 °C.

In turn, `FC(F)(F)c1ccc(/C=C/c2nc(COc3ccc(CCCn4ccnn4)cc3)co2)cc1` [Example 5, 1-(3-{4-[(2-((E)-2-[4-(trifluoromethyl)phenyl]ethenyl)-1,3-oxazol-4-yl)methoxy]phenyl}propyl)-1H-1,2,3-triazole] displayed a melting point of 157 to 158 °C.

In turn, `Fc1ccc(/C=C/c2nc(COc3ccc(CCCCn4ccnn4)cc3)co2)cc1` [Example 2, 1-{4-[4-({2-[(E)-2-(4-fluorophenyl)ethenyl]-1,3-oxazol-4-yl}methoxy)phenyl]butyl}-1H-1,2,3-triazole] had a melting point of 124 to 125 °C.

Consider `OCCc1nccn1CCCCc1ccc(OCc2coc(/C=C/c3ccc(Cl)cc3)n2)cc1` [Example 15, 2-[1-[4-[4-[[2-[(E)-2-(4-chlorophenyl)ethenyl]-1,3-oxazol-4-yl]methoxy]phenyl]butyl]-1H-imidazol-2-yl]-1-ethanol], for which the melting point was in the range of 127 to 128 °C.

For the molecule `OCC(O)Cc1nccn1CCCCc1ccc(OCc2coc(/C=C/c3c(F)cccc3F)n2)cc1` (stereo not shown) [Example 28, 3-[1-[4-[4-[[2-[(E)-2-(2,6-difluorophenyl)ethenyl]-1,3-oxazol-4-yl]methoxy]phenyl]butyl]-1H-imidazol-2-yl]-1,2-propanediol], the melting point was in the range of 123 to 125 °C.

The molecule `OC[C@H](O)Cc1nccn1CCCCc1ccc(OCc2coc(/C=C/c3ccc(F)cc3F)n2)cc1` [Example 29] showed a melting point of 104 to 106 °C.

As for `OCC(O)Cc1nccn1CCCCc1ccc(OCc2coc(/C=C/c3ccc(F)cc3)n2)cc1` (stereo not shown) [Example 23, 3-(1-{4-[4-({2-[(E)-2-(4-fluorophenyl)ethenyl]-1,3-oxazol-4-yl}methoxy)phenyl]butyl}-1H-imidazol-2-yl)-1,2-propanediol], the melting point was 114 to 116 °C.

In turn, `OCCc1nccn1CCCCc1ccc(OCc2coc(/C=C/c3c(F)cccc3F)n2)cc1` [Example 21] had a melting point of 106 to 107 °C.

As to `OCC(O)Cc1nccn1CCCc1cccc(OCc2coc(/C=C/c3ccc(C(F)(F)F)cc3)n2)c1` (stereo not shown) [Example 25, 3-[1-(3-{3-[(2-{(E)-2-[4-(trifluoromethyl)phenyl]ethenyl}-1,3-oxazol-4-yl)methoxy]phenyl}propyl)-1H-imidazol-2-yl]-1,2-propanediol], the melting point was in the range of 102 to 104 °C.

`OCC(O)Cc1nccn1CCCCc1ccc(OCc2coc(/C=C/c3ccc(F)cc3F)n2)cc1` (stereo not shown) [Example 26, 3-(1-{4-[4-({2-[(E)-2-(2,4-difluorophenyl)ethenyl]-1,3-oxazol-4-yl]methoxy)phenyl]butyl}-1H-imidazol-2-yl)-1,2-propanediol] registered a melting point of 126 to 128 °C.

Molecule `Cc1ccc(/C=C/c2nc(COc3ccc(CCCCn4ccnn4)cc3)co2)cc1` [Example 1] came in with a melting point of 154 to 155 °C.

Molecule `Fc1ccc(/C=C/c2nc(COc3cccc(CCCn4ccnn4)c3)co2)cc1` [Example 3, 1-{3-[3-({2-[(E)-2-(4-fluorophenyl)ethenyl]-1,3-oxazol-4-yl}methoxy)phenyl]propyl}-1H-1,2,3-triazole] displayed a melting point of 105 to 106 °C.

On to `Cc1cccc(/C=C/c2nc(COc3ccc(CCCCn4ccnc4CCO)cc3)co2)c1` [Example 11, 2-[1-[4-[4-[[2-[(E)-2-(3-methylphenyl)ethenyl]-1,3-oxazol-4-yl]methoxy]phenyl]butyl]-1H-imidazol-2-yl]-1-ethanol], for which the melting point fell in the range of 109 to 111 °C.

For `Fc1ccc(/C=C/c2nc(COc3ccc(CCCCn4ccnn4)cc3)co2)c(F)c1` [Example 7, 1-{4-[4-({2-[(E)-2-(2,4-difluorophenyl)ethenyl]-1,3-oxazol-4-yl}methoxy)phenyl]butyl}-1H-1,2,3-triazole], the melting point lay in the range of 115 to 117 °C.

`Cc1ccc(/C=C/c2nc(COc3ccc(CCCCn4ccnc4CCO)cc3)co2)cc1` [Example 10, 2-[1-[4-[4-[[2-[(E)-2-(4-methylphenyl)ethenyl]-1,3-oxazol-4-yl]methoxy]phenyl]butyl]-1H-imidazol-2-yl]-1-ethanol]: the melting point lay within 108 to 109 °C.

In turn, `OC[C@@H](O)Cc1nccn1CCCCc1ccc(OCc2coc(/C=C/c3ccc(F)cc3F)n2)cc1` [Example 30] showed a melting point of 106 to 108 °C.

On to `Cc1ccccc1/C=C/c1nc(COc2ccc(CCCCn3ccnc3CCO)cc2)co1` [Example 12, 2-[1-[4-[4-[[2-[(E)-2-(2-methylphenyl)ethenyl]-1,3-oxazol-4-yl]methoxy]phenyl]butyl]-1H-imidazol-2-yl]-1-ethanol], for which the melting point was 91 to 93 °C.

`Cc1cccc(/C=C/c2nc(COc3ccc(CCCCn4ccnc4CC(O)CO)cc3)co2)c1` (stereo not shown) [Example 22, 3-(1-{4-[4-({2-[(E)-2-(3-methylphenyl)ethenyl]-1,3-oxazol-4-yl}methoxy)phenyl]butyl}-1H-imidazol-2-yl)-1,2-propanediol] gave a melting point of 102 to 104 °C.

The molecule `OCC(O)Cc1nccn1CCCCc1ccc(OCc2coc(/C=C/c3ccc(C(F)(F)F)cc3)n2)cc1` (stereo not shown) [Example 24, 3-[1-(4-(4-[(2-{(E)-2-[4-(trifluoromethyl)phenyl]ethenyl}-1,3-oxazol-4-yl)methoxy]phenyl}butyl)-1H-imidazol-2-yl]-1,2-propanediol] showed a melting point of 142 to 143 °C.

`OCCc1nccn1CCCCc1ccc(OCc2coc(/C=C/c3ccc(Br)cc3)n2)cc1` [Example 16, 2-[1-[4-[4-[[2-[(E)-2-(4-bromophenyl)ethenyl]-1,3-oxazol-4-yl]methoxy]phenyl]butyl]-1H-imidazol-2-yl]-1-ethanol]: the melting point lay in the range of 149 to 150 °C.

`OCCc1nccn1CCCc1ccc(OCc2coc(/C=C/c3ccc(F)cc3F)n2)cc1` [Example 20, 2-[1-[3-[4-[[2-[(E)-2-(2,4-difluorophenyl)ethenyl]-1,3-oxazol-4-yl]methoxy]phenyl]propyl]-1H-imidazol-2-yl]-1-ethanol] registered a melting point of 94 to 96 °C.

The values above are taken from patent publication US6716863B2, “Heterocyclic compounds their production and use” (Takeda Chemical Industries, Ltd., priority 2000, dated 2004).
